Assay results published in the kinase profiling compilation of Christmann-Franck et al. (2016).

Key:
Test in all cases: KINOMEscan competition binding
Conditions in all cases: compound 10.0 µM; call rule not given here
HCK (human) = HCK (human) (UniProt P08631)
PKN2 (human) = PKN2 (human) (UniProt Q16513)
AXL (human) = AXL (human) (UniProt P30530)
MARK2 (human) = MARK2 (human) (UniProt Q7KZI7)
ACVR1 (human) = ACVR1 (human) (UniProt Q04771)
FRK (human) = FRK (human) (UniProt P42685)
PRKAA1 (human) = PRKAA1 (human) (UniProt Q13131)
ACVR2A (human) = ACVR2A (human) (UniProt P27037)
ABL1 (human) = ABL1 (human) (UniProt P00519)
GSK3A (human) = GSK3A (human) (UniProt P49840)
[1] = molecular target: JAK2 JH1 catalytic (human) (UniProt O60674)
TEK (human) = TEK (human) (UniProt Q02763)
SIK2 (human) = SIK2 (human) (UniProt Q9H0K1)
MAPK8 (human) = MAPK8 (human) (UniProt P45983)
MET (human) = MET (human) (UniProt P08581)
NTRK3 (human) = NTRK3 (human) (UniProt Q16288)
AURKC (human) = AURKC (human) (UniProt Q9UQB9)
NTRK2 (human) = NTRK2 (human) (UniProt Q16620)
ALK (human) = ALK (human) (UniProt Q9UM73)
ACVR2B (human) = ACVR2B (human) (UniProt Q13705)
CAMK2A (human) = CAMK2A (human) (UniProt Q9UQM7)
EPHA8 (human) = EPHA8 (human) (UniProt P29322)
FLT4 (human) = FLT4 (human) (UniProt P35916)
MAPK10 (human) = MAPK10 (human) (UniProt P53779)
FYN (human) = FYN (human) (UniProt P06241)
BMX (human) = BMX (human) (UniProt P51813)
DAPK2 (human) = DAPK2 (human) (UniProt Q9UIK4)
EPHA2 (human) = EPHA2 (human) (UniProt P29317)
STK16 (human) = STK16 (human) (UniProt O75716)
AURKA (human) = AURKA (human) (UniProt O14965)
RET (human) = RET (human) (UniProt P07949)
BLK (human) = BLK (human) (UniProt P51451)
SRC (human) = SRC (human) (UniProt P12931)
TTK (human) = TTK (human) (UniProt P33981)
TNIK (human) = TNIK (human) (UniProt Q9UKE5)
CSNK1A1L (human) = CSNK1A1L (human) (UniProt Q8N752)
CLK2 (human) = CLK2 (human) (UniProt P49760)
CDK5 (human) = CDK5 (human) (UniProt Q00535)
CSF1R (human) = CSF1R (human) (UniProt P07333)
FLT3 (human) = FLT3 (human) (UniProt P36888)

Sequence of TEK (human) (Q02763 whole entry, looked up): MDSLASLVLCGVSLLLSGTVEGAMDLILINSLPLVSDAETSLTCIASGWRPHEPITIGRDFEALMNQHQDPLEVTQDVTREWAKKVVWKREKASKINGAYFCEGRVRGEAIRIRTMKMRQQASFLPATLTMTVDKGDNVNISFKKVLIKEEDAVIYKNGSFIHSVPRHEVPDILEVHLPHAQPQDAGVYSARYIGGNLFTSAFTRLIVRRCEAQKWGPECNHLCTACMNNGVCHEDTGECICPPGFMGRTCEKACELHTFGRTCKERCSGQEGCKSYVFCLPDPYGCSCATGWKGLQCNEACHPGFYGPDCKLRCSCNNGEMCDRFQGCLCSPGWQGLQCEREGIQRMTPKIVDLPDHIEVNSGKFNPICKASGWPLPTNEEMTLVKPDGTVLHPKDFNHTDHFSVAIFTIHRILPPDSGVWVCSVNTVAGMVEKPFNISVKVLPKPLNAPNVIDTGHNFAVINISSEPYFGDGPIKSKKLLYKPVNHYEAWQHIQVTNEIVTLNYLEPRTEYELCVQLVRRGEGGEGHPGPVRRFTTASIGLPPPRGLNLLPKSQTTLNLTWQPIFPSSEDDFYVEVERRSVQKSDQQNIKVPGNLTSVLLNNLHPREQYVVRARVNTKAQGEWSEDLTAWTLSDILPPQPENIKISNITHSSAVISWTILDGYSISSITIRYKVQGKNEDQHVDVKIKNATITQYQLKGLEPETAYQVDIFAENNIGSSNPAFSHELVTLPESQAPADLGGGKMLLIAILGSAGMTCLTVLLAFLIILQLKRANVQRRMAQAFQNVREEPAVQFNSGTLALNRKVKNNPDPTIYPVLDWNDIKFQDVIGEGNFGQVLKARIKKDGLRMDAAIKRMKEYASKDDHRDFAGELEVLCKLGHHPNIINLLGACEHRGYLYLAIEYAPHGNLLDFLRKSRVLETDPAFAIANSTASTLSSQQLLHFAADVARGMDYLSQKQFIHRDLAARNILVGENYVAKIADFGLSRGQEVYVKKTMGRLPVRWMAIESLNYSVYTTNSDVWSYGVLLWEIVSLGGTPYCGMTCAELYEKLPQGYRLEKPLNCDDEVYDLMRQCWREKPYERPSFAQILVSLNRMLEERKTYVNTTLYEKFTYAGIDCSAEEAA
Sequence of HCK (human) (P08631 whole entry, looked up): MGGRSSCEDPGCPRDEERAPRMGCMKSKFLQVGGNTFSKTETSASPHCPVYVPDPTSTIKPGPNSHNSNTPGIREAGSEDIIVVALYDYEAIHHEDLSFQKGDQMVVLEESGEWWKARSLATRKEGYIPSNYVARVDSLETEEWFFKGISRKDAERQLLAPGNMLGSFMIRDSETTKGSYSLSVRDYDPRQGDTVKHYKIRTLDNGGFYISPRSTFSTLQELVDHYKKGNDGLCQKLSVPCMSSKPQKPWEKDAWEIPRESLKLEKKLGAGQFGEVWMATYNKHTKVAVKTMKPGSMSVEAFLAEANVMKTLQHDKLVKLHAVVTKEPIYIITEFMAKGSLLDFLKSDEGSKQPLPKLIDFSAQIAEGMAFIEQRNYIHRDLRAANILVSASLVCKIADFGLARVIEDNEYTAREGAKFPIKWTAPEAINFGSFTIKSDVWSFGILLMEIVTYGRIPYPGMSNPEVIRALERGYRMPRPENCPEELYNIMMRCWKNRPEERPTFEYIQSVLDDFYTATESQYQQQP
Sequence of MAPK8 (human) (P45983 whole entry, looked up): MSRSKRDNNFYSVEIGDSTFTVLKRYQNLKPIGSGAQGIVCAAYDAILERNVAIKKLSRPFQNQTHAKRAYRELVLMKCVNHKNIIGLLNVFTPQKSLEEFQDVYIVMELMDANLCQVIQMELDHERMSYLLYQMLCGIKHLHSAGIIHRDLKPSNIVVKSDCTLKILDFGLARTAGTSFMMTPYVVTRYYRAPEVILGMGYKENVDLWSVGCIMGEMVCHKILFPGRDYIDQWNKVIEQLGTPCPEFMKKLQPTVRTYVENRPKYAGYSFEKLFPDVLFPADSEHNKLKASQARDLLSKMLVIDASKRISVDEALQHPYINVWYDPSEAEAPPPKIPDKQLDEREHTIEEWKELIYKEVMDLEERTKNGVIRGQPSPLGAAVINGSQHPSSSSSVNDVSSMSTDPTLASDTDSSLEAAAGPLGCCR
Sequence of EPHA2 (human) (P29317 whole entry, looked up): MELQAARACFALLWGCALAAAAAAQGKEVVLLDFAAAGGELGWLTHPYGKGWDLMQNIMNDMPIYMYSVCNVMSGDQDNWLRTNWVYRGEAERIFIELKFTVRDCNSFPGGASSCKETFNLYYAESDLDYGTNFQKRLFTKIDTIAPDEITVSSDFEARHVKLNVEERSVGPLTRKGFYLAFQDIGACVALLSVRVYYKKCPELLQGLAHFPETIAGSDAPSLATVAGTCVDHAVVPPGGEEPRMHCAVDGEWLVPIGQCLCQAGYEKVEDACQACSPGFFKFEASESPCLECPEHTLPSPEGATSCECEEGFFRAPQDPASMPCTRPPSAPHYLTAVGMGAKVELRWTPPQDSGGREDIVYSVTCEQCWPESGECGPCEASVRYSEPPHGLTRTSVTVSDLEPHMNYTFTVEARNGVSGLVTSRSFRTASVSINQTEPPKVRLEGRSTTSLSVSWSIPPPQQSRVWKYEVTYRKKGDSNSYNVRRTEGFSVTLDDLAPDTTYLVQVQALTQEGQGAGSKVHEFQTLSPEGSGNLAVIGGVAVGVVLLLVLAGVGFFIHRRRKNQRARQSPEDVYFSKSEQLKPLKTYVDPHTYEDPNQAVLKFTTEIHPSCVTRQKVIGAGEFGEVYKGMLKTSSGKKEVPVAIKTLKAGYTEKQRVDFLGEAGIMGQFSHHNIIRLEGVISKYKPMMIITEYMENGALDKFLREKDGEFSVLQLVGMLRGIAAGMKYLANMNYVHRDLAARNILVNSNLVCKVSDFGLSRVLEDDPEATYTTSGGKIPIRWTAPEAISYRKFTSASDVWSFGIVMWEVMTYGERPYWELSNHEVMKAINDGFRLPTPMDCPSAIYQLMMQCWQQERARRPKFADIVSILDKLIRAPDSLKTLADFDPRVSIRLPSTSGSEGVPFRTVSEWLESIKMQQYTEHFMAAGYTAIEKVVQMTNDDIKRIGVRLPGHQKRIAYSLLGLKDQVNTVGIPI
Sequence of FRK (human) (P42685 whole entry, looked up): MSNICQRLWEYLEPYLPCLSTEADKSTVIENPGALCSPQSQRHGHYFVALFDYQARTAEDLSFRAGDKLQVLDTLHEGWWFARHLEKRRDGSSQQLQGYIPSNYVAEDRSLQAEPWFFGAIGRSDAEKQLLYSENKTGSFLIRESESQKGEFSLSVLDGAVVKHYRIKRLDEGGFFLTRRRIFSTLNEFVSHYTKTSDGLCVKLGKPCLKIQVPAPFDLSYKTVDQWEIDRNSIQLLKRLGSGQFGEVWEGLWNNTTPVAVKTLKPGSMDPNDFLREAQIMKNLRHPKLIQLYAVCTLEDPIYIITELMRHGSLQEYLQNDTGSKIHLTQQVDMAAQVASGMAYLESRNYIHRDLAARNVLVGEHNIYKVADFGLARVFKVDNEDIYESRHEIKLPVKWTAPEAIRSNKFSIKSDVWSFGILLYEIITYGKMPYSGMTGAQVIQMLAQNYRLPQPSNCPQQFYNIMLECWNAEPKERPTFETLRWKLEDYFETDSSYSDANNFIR
Sequence of TTK (human) (P33981 whole entry, looked up): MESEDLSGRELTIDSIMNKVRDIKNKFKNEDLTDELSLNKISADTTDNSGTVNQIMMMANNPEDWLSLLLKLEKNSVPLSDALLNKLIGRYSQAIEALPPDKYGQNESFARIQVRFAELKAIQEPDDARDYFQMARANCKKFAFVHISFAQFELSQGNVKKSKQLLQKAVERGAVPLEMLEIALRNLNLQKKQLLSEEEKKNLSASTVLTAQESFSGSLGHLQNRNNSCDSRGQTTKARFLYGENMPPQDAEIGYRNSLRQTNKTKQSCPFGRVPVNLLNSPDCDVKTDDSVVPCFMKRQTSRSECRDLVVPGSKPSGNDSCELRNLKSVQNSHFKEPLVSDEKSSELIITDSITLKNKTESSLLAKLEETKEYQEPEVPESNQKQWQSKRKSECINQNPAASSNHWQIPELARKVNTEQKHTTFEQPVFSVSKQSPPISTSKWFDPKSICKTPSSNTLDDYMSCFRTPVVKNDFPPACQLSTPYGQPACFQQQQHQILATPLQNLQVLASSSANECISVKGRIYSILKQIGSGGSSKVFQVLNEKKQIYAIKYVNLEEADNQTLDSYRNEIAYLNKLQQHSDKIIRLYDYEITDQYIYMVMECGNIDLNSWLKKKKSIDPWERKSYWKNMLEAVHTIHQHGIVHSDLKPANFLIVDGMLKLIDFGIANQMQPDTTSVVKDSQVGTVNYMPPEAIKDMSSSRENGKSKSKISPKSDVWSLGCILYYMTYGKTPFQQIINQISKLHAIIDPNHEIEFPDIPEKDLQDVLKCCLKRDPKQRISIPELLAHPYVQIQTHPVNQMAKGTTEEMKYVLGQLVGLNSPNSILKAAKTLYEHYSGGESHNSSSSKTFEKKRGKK
Sequence of AURKA (human) (O14965 whole entry, looked up): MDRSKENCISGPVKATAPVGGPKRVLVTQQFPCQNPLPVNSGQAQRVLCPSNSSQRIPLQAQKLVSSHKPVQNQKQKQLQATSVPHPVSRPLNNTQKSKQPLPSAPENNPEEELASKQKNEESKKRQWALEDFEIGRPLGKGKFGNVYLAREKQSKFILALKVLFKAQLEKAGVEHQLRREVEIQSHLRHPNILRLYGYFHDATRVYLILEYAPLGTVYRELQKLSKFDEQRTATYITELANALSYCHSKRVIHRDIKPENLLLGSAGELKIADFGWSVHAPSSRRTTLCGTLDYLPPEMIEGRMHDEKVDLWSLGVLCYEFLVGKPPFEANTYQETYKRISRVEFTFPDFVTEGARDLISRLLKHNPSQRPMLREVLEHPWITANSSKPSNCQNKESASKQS

- kinase still bound, per cent of control (HCK (human)): 0%
- kinase still bound, per cent of control (PKN2 (human)): 3%
- kinase still bound, per cent of control (AXL (human)): 0%
- kinase still bound, per cent of control (MARK2 (human)): 0.3%
- kinase still bound, per cent of control (ACVR1 (human)): 0.1%
- kinase still bound, per cent of control (FRK (human)): 0.5%
- kinase still bound, per cent of control (PRKAA1 (human)): 0%
- kinase still bound, per cent of control (ACVR2A (human)): 22.7%
- kinase still bound, per cent of control (ABL1 (human)): 0.6%
- kinase still bound, per cent of control (GSK3A (human)): 0.85%
- kinase still bound, per cent of control [1]: 0.1%
- kinase still bound, per cent of control (TEK (human)): 0.4%
- kinase still bound, per cent of control (SIK2 (human)): 0.8%
- kinase still bound, per cent of control (MAPK8 (human)): 0%
- kinase still bound, per cent of control (MET (human)): 0.3%
- kinase still bound, per cent of control (NTRK3 (human)): 0%
- kinase still bound, per cent of control (AURKC (human)): 0.5%
- kinase still bound, per cent of control (NTRK2 (human)): 0%
- kinase still bound, per cent of control (ALK (human)): 0%
- kinase still bound, per cent of control (ACVR2B (human)): 2.4%
- kinase still bound, per cent of control (CAMK2A (human)): 0.5%
- kinase still bound, per cent of control (EPHA8 (human)): 0.4%
- kinase still bound, per cent of control (FLT4 (human)): 0.1%
- kinase still bound, per cent of control (MAPK10 (human)): 0%
- kinase still bound, per cent of control (FYN (human)): 0%
- kinase still bound, per cent of control (BMX (human)): 1.4%
- kinase still bound, per cent of control (DAPK2 (human)): 3.8%
- kinase still bound, per cent of control (EPHA2 (human)): 1.5%
- kinase still bound, per cent of control (STK16 (human)): 0%
- kinase still bound, per cent of control (AURKA (human)): 0%
- kinase still bound, per cent of control (RET (human)): 0%
- kinase still bound, per cent of control (BLK (human)): 0%
- kinase still bound, per cent of control (SRC (human)): 0%
- kinase still bound, per cent of control (TTK (human)): 0%
- kinase still bound, per cent of control (TNIK (human)): 0%
- kinase still bound, per cent of control (CSNK1A1L (human)): no effect (inactive)
- kinase still bound, per cent of control (CLK2 (human)): 0%
- kinase still bound, per cent of control (CDK5 (human)): 16.8%
- kinase still bound, per cent of control (CSF1R (human)): 0%
- kinase still bound, per cent of control (FLT3 (human)): 0%
Compound: CCS(=O)(=O)Nc1ccc2c(c1)[C@H](/C(=N/c1ccc(CN3CCCCC3)cc1)c1ccccc1)C(=O)N2
